Format in all cases: physicochemical
Data set [1] in a line: Solubility of compound II in solvents. How it is done: Compound II (2 g) was slowly dispersed in 70% IPA (20 mL) and water (14 mL) was added. […] The IPA was distilled using rotary evaporator to achieve an aqueous solution containing ca. […] of II. The concentrated aqueous solution was spray dried using a Buchi B-290 spray drier and the operating parameters were adjusted as follows: […]

The nature of data set [2]: Hygroscopicity: water absorbed in controlled relative humidity chamber (weight gain). To be noted: 4 weeks. As for the experimental part: (§1) A small amount of the solid (about 10 mg from example 1) was weighed into a weighing bottle and placed in a chamber with controlled relative humidity for 4 weeks and the percentage of water absorbed was calculated form the weight gain. The sample was also assayed by HPLC against an external standard on a Waters 2690 HPLC at 276 nm. The data was processed using Waters Millennium software version 3.2. The thermal stability also was determined at 60° C. and at 40° C./75% relative humidity. The purity of the sample was determined by assaying weighed aliquots by HPLC against an external standard.

Data set [3] in a line: Stability study of micellar solid from spray drying of I (HPLC area %). How it is done: as §1

SMILES strings stand for the structures.

A word on the solubility: it is how much of the substance goes into solution per volume. For the compound `CCC(=O)[N-]S(=O)(=O)c1ccc(NC(=O)Cc2ccc(Br)c(Oc3cc(Cl)cc(C#N)c3)c2F)c(Cl)c1.[Na+]` [II], the solubility in data set [1] (aqueous with cosolvent or surfactant or cyclodextrin, in 70% IPA/H2O) is about 47000 µg/mL; in data set [1] (in water), about 4000 µg/mL; in data set [1] (organic solvent or mixture, in IPA), about 80 µg/mL.

As for `O=C(O)CCc1cc(C(=O)c2ccc(OC3CCCC3)cc2O)ccc1OCc1ccc2c(O)noc2c1` [I], the hygroscopicity result in data set [2] is recorded as “not hygroscopic”. The Area % in data set [3] (25° C./60% RH (closed), 4 weeks) is reported as 99.88%; in data set [3] (25° C./60% RH (closed), To) it was 99.88%; in data set [3] (40° C./75% RH (closed), 4 weeks) it was 99.91%; in data set [3] (40° C./75% RH (closed), To) it was 99.88%; in data set [3] (40° C./75% RH (open), 5 weeks), 99.26%; in data set [3] (40° C./75% RH (open), To), 99.81%. Further, the Area % in data set [3] (60° C. (closed), 5 weeks) is 99.72%; in data set [3] (60° C. (closed), To) it was 99.81%. Besides, the thermal stability entry in data set [3] (at 40 and 60° C. over the duration of the assay) is given as “thermally stable”.

For the origin of these results see patent publication US20090218708A1, “Process for preparing concentrated aqueous micellar solutions” (Roche Palo Alto LLC, priority 2008, published 2009).
